“Also recorded” adds a separate entry of the source.
Experiments:
hES cells [1] = assay: hES differentiation as embryoid bodies (EBs) in suspension culture, scoring of beating EBs; type: cell-based, human; conditions: for number of EBs with beating foci: 5 μM in END2-CM, added early (during or shortly after EB formation), day 12, vs END2-CM alone
Protocol: This method describes hES differentiation through the formation of embryoid bodies (EB) from hES cells grown on MEF. EBs can also be generated from hES grown in feeder free systems. Formed EBs were then cultured in respective media such as SF or END2-CM. […] Enzymatically passaged hES cells grown on feeder cells were washed once with PBS^+ and treated with Collagenase IV (1 mg/ml) for 3-4 min at 37° C. The Collagenase IV solution was replaced by DMEM and the cells were mechanically dissociated with a pipette tip. Cells were then harvested using a cell scraper and the cell suspension was transferred to a 50 ml tube (Falcon). Cell clumps were collected by gravity and the supernatant was aspirated. Cells were resuspended in fresh DMEM medium aiming to uniformly disperse the cell clumps in the suspension. An equal volume of the cell suspension was then transferred to ultra low attachment plates (Costar). […] Alternatively, cells can be seeded into plates under conditions supporting cell adherence to induce differentiation of hES attached to a surface. In suspension culture, EBs were formed in ultra low attachment plates in SF medium over night. After over night incubation SF medium was replace by fresh SF medium or END2-CM respectively for further differentiation. Subsequent medium changes were performed every 3-4 days. Usually, cells were cultured over a period of 12-13 days before the visual analysis of the proportion of beating EBs under a microscope was performed followed by cell collection for additional readouts. Multiple beating areas on single EBs were not counted separately. […] Cell harvest and analysis at time points other then 12-13 days after EB formation is indicated in the respective examples and figures of this embodiment. […] An average value per well was calculated and presented. hES differentiation in suspension culture: EBs were formed in ultra low attachment plates in SF medium over night. After over night incubation SF medium was replace by fresh SF medium or END2-CM. […] Subsequent medium changes were performed every 3-4 days. Usually, cells were cultured over a period of 12-13 days. […] Medium change was performed at day 3, 6 and 9 after EB formation.

hES cells [2] = assay: qRT-PCR of cardiac and lineage marker genes in differentiating EBs; type: cell-based, human
Protocol: RNA extraction: EBs at the end of the twelve day period or as indicated in the text were harvested. All EBs from 3 wells were pooled and washed once in PBS^−. Trizol (Invitrogen) was added before freezing the EBs at −80° C. to enhance cell lysis. Frozen samples were thawed and harshly mixed. Chloroform was added to the sample and incubated for 3 min at room temperature. The sample was centrifuged for 15 min at 13000 rpm at 4° C. and the aqueous phase collected. An equal volume of 70% ethanol was added before the sample was loaded onto an RNeasy mini column (Qiagen). The column was centrifuged for 15 sec at ≧8000 g. The rest of the purification steps were performed according to manufacturer's instructions. RNA was eluted in RNase-free water. 5 μg of the RNA sample were then treated with DNase (Invitrogen) in a volume of 50 μl. The mixture was incubated at room temperature for 30 min and heat inactivated for 10 min at 80° C. before cooling rapidly on ice.
Reverse transcriptase: 5 μg of total RNA was mixed with 2 μl of 3 μg/μl random primers (Invitrogen) in a final volume of 100 μl. 75 μl were reversed transcribed (BioLabs), the remaining 25 μl served as a negative control. Samples were incubated for 1 hour at 37° C. before the reaction was terminated for 5 min at 95° C.
Real-time PCR: The PCR reaction was performed on 100 ng of cDNA, with 15 μl of 2× IQ™ SYBR® Green Supermix (Biorad) in a final reaction volume of 30 μl. To minimize variations in the triplicates, a master mix was prepared containing all reaction components except cDNA. PCR was performed on an iCycler™ (Biorad), annealing at 58° C. for 30 sec, extension at 72° C. for 45 sec, 40 cycles in total. Relative expression values were obtained by normalizing CT values of the tested genes in comparison with CT values of the housekeeping gene α-Actin using the ΔΔ CT method (19). The samples were subjected to PCR amplification with human gene primers including: […]
The samples were subjected to PCR amplification with human gene primers including: […]
The samples were subjected to PCR amplification with human gene primers including MESP1 (sense primer: […]; antisense primer: […]).

hES cells [3] = assay: Quantification of cardiomyocytes by Cytospin and MF20 staining; type: cell-based, human
Protocol: (§1) To more accurately determine the number of cardiomyocytes in the differentiated cell population, EBs were collected, washed in PBS^− and incubated with 0.05% Trypsin for 5 min at 37° C. Cell clumps were triturated and incubated for another 5 min at 37° C. Trypsin activity was inactivated with serum containing media and cells were collected via centrifugation at 2500 rpm for 4 min at 4° C. The cell pellet was resuspended in PBS for cell count and cytospun onto glass slides at 500 rpm for 5 min at low acceleration using 1×10^5 cells. Cells were stained immediately (see previous example) and a cell count performed.
(§2) Readouts were performed on day 13: the percentage of beating EBs was defined, the average cell number per well was counted via a cytometer after EBs dissociation with trypsin, the percentage of cardiomyocytes was divined via cytospin followed by cardiomyocyte specific anti α-Myosin Heavy Chain stain (MF20 antibody), and RNA was harvest for qRT-PCR.

hES cells [4] = assay: Cell count per well after EB differentiation
Protocol: as §1, §2

hES cells [5] = assay: EB morphology, H&E staining on paraffin sections; type: cell-based, human
Protocol: Paraffin sections: Beating EBs were collected and fixed for 15 min in 10% formalin at room temperature. EBs were then embedded in 1.5% agarose and dehydrated through 70% to 100% ethanol with a last incubation in xylene. The agarose block was then embedded in paraffin. 5 μm thick sections were cut in ribbons, floated on a warm water bath of 45° C., mounted on slides, and left to air dry at 37° C. overnight.
For hES culture on human feeder cells, see Example 2. For Immunohistochemistry performed here, see example 3. H&E staining on Paraffin sections was performed at the BSF facility (Biopolis).

hES cells [6] = assay: hES differentiation as embryoid bodies (EBs) in suspension culture, scoring of beating EBs; type: cell-based; conditions: hES maintained on human feeder (HF), 12 days; END2-CM only, or SB203580 at 5 μM in END2-CM
[7] = test system: JNK and/or p42/p44 MAP kinase; conditions: cited from earlier work
[8] = test system: mouse embryonic carcinoma cell line P19; conditions: cited from earlier work
hES cells [9] = conditions: Vitamin C added to the END2-hES co-culture system; cited from earlier work
[10] = 0.2 μM and 2 μM in bSF, 12 days
[11] = Example 5, END2-CM alone, or SB203580 at 5 μM in END2-CM
[12] = inhibitor added day 6 onwards, END2-CM
[13] = high concentration (20 μM) in END2-CM
[14] = END2-CM supplemented with 0.1 mM Vitamin C, day 12

CC(=O)O [AA, Acetic Acid]
percentage of beating EBs on day 13 (hES cells [1]; 0.5 μM in bSFS vs bSFS alone): about the same
percentage of beating EBs on day 13 (hES cells [1]; 5 μM in bSFS vs bSFS alone): slide increase
relative expression of α-MHC (hES cells [2]; 0.5 μM in bSFS vs bSFS alone): about the same
relative expression of α-MHC (hES cells [2]; 5 μM in bSFS vs bSFS alone): slide increase
fold increase in relative α-MHC expression (hES cells [2]; AA at a 0.5 μM concentration in bSFS (second statement)): about 2 fold
proportion of cardiomyocytes (hES cells [3]; 0.5 μM or 5 μM AA in bSFS, day 13): slightly increased
day 13 cell count per well of a 6-well plate (hES cells [4]; bSFS + 0.5 μM Acetic Acid (AA)): 1.18 × 10^6
day 13 cell count per well of a 6-well plate (hES cells [4]; bSFS + 5.0 μM AA): 1.03 × 10^6

CCCCC[C@H](O)/C=C/[C@@H]1[C@H]2C/C(=C/CCCC(=O)[O-])O[C@H]2C[C@H]1O.[Na+] [PGI2, (5Z, 9α, 11α, 13E, 15S)-6,9-Epoxy-11,15-dihydroxyprosta-5,13-dien-1-oic acid Sodium salt]
fold higher percentage of beating EBs (hES cells [1]; [10]): 3 fold
EB beating levels and marker gene expression levels compared to END2-CM (hES cells [1]; bSF with PGI2 at 0.2 μM and 2 μM): equivalent or even higher
fold higher relative expression of the cardiac marker α-MHC (hES cells [2]; [10]): 2-3 fold

Oc1ccc(-c2nc(-c3ccncc3)c(-c3ccc(F)cc3)[nH]2)cc1 [SB202190]
number of EBs with beating foci (hES cells [1]): the same effect; also recorded: comparable cardiogenic effect

C[S+]([O-])c1ccc(-c2nc(-c3ccc(F)cc3)c(-c3ccncc3)[nH]2)cc1 (centres unmarked) [SB203580, 4-(4-Fluorophenyl)-2-(4-methylsulfinylphenyl)-5-(4-pyridyl)1H-imidazole]
number of EBs with beating foci (hES cells [1]): increased
beating (hES cells [1]; 15 μM or more in END2-CM): declined
formation of beating foci at day 12 (hES cells [1]; 20 μM in END2-CM): almost completely suppressed
beating (hES cells [1]; 25 μM in END2-CM): no beating detectable
size of the contracting area and beating frequency of beating foci (hES cells [1]; END2-CM with SB203580): positive effect
beating EBs at day 12 (hES cells [1]; [11]): 78%
beating foci on EBs (hES cells [1]; SF medium supplemented with 5 μM): beating foci were detected
number of beating foci per EB at day 12 (hES cells [1]; added during the first 3 days of differentiation): remarkable increase
percentage of beating EBs (hES cells [1]; hES batches less responsive to END2-CM (below 50% beating), SB203580 in END2-CM): more than 60%
number of beating foci (hES cells [1]; [12]): no effect
number of beating foci (hES cells [1]; up to 10 μM in END2-CM, 12 days, vs non-supplemented END2-CM): increase
expression of cardiac markers at day 12 (hES cells [2]; 5 μM from the start in END2-CM vs END2-CM alone): increased expression
Brachyury expression around day 4 (hES cells [2]; 5 μM in END2-CM): strong upregulation
expression of skeletal (Myf5), endoderm (Sox17) or neuroectoderm (Sox1) markers (hES cells [2]; 5 μM in END2-CM): did not induce expression
expression of the cardiac markers Nkx2.5 and α-MHC at day 12 (hES cells [2]; 5 μM in END2-CM): higher expression
Brachyury expression (hES cells [2]; 5 and 20 μM in END2-CM): upregulated
Sox1 expression (hES cells [2]; END2-CM supplemented with 25 μM): significantly expressed
α-MHC expression at day 12 (hES cells [2]; Example 7, 5 μM in END2-CM): increased
expression of precardiac mesoderm (Nkx2.5) and cardiac marker genes (hES cells [2]; Example 7, 20 μM in END2-CM): reduced
Sox1 expression (hES cells [2]; SF medium, from 10 μM onwards): upregulated
Sox1 expression (hES cells [2]; [13]): strongly upregulated
Sox17 expression at day 12 (hES cells [2]; [13]): higher expressed
Mesp1 expression (hES cells [2]; higher concentration (20 μM) in END2-CM): comparable to EBs grown in SF medium
expression of α-MHC (hES cells [2]; highest concentration (25 μM) in END2-CM): barely detectable
expression of α-MHC at day 12 (hES cells [2]; [12]): no effect
Mesp1 expression (hES cells [2]; low concentration (5 μM) in END2-CM): higher expressed
expression of α-MHC (hES cells [2]; over 10 μM in END2-CM): declined
percentage of cardiomyocytes (hES cells [3]; 5 μM in END2-CM, day 13): slightly elevated
proportion of cardiomyocytes (hES cells [3]; 5 μM in bSFS, day 13): almost tripled
cardiomyocytes (MF-20 positive) in EBs at day 12 (hES cells [3]; [11]): 21.7%
morphology of EBs (hES cells [5]; higher concentrations in END2-CM, 12 days): more compact and do not form epithelial visceral endoderm
appearance of neural progenitor population in EBs (hES cells [5]; higher doses (>5 μM-25 μM), END2 CM): morphological uniform neuroepithelial EBs with clear rosette structure formed
neurite-like outgrowth of attached EBs (hES cells [5]; serum free condition + 10 μM, 12 days): high number of neurite-like outgrowth
percentage of beating EBs (hES cells [6]): 60-87%
inhibition of JNK and/or p42/p44 MAP kinase [7]: does not inhibit
cardiomyocyte differentiation in P19 [8]: prevented cardiomyocyte differentiation
day 13 cell count per well of a 6-well plate (hES cells [4]; CM + 5 μM SB203580): 3.63 × 10^6
total cell number at day 12 (hES cells [4]; Example 5, END2-CM alone, or END2-CM supplemented with 5 μM SB203580): 1.16×10^6 cells/well

O=C1O[C@H]([C@@H](O)CO)C(O)=C1O [Vitamin C]
increase in the number of beating EBs (hES cells [1]; [14]): up to 20%
expression of cardiac specific markers ANF or α-MHC (hES cells [2]; [14]): increased
increase in the number of beating areas (hES cells [9]): up to 40%
